Where two headings read alike, the source gives them in different places.
Experiment: Pharmacokinetics of SNS-595 in cancer patients
Assay type: in vivo, human
Conditions: for AUC(0-t) / AUC(0-inf) / MRT inf / Cmax: human, intravenous
Procedure: SNS-595 was administered to enrolled patients for up to six cycles. A cycle is defined as a three-week period, with SNS-595 administered on the first day of each cycle (day 0), followed by at least 21 days of observation. SNS-595 was administered to cohorts of at least 3 patients and dose escalation occurred by sequential cohort.

[1] = 48 mg/m2, plasma, dose 48 mg/m^2
[2] = 60 mg/m2, plasma, dose 60 mg/m^2

relation of dose to AUC^oo (dose escalation by sequential cohort): linear
AUC(0-t) (3 mg/m2, plasma, dose 3 mg/m^2): 750 ng·h/mL
AUC(0-t) (6 mg/m2, plasma, dose 6 mg/m^2): 2400 ng·h/mL
AUC(0-inf) (6 mg/m2, plasma, dose 6 mg/m^2, read-out: AUCINF_obs): 2990 ng·h/mL
MRT inf (6 mg/m2, plasma, dose 6 mg/m^2, read-out: MRTINF_obs): 29.1 h
AUC(0-t) (12 mg/m2, plasma, dose 12 mg/m^2): 5400 ng·h/mL
MRT inf (12 mg/m2, plasma, dose 12 mg/m^2, read-out: MRTINF_obs): 23.7 h
AUC(0-t) (24 mg/m2, plasma, dose 24 mg/m^2): 11100 ng·h/mL
MRT inf (24 mg/m2, plasma, dose 24 mg/m^2, read-out: MRTINF_obs): 21.6 h
AUC(0-t) [1]: 21100 ng·h/mL
Cmax [1]: 2870 ng/mL
AUC(0-inf) (48 mg/m2, plasma, dose 48 mg/m^2, read-out: AUCINF_obs): 27300 ng·h/mL
MRT inf (48 mg/m2, plasma, dose 48 mg/m^2, read-out: MRTINF_obs): 28.9 h
AUC(0-t) [2]: 28100 ng·h/mL
Cmax [2]: 4540 ng/mL
AUC(0-inf) (60 mg/m2, plasma, dose 60 mg/m^2, read-out: AUCINF_obs): 33600 ng·h/mL
MRT inf (60 mg/m2, plasma, dose 60 mg/m^2, read-out: MRTINF_obs): 23.7 h
CO (plasma, dose 3 mg/m^2): 152.25 ng/mL
CO (plasma, dose 6 mg/m^2): 379.69 ng/mL
CO (plasma, dose 12 mg/m^2): 2888.66 ng/mL
CO (plasma, dose 24 mg/m^2): 2924.46 ng/mL
CO (plasma, dose 48 mg/m^2): 1984.52 ng/mL
Vss_obs (plasma, dose 48 mg/m^2): 1.46 L/kg
CO (plasma, dose 60 mg/m^2): 4797.47 ng/mL
SMILES: CN[C@H]1CN(c2ccc3c(=O)c(C(=O)O)cn(-c4nccs4)c3n2)C[C@@H]1OC [SNS-595, (+)-1,4-dihydro-7-[(3S,4S)-3-methoxy-4-(methylamino)-1-pyrrolidinyl]-4-oxo-1-(2-thiazoyl)-1,8-naphthyridine-3-carboxylic acid]

From patent US9757363B2, “SNS-595 and methods of using the same” (Sunesis Pharmaceuticals, Inc., priority 2004, dated 2017)
